Paper PMC10531095, “Photonics of Some Monomethine Cyanine Dyes in Solutions and in Complexes with Biomolecules” (International Journal of Molecular Sciences, 2023)

Experiments:
[1] = target: T1, HSA (Homo sapiens, UniProt P02768); experiment: Quenching of HSA intrinsic fluorescence by MCD, synchronous fluorescence scanning; type: binding; conditions: for decrease of the intensity of the SFS band of HSA, tyrosine: Δλ = 15 nm; for decrease of the intensity of the SFS band of HSA, tyrosine / decrease of the intensity of the SFS band of HSA, tryptophan: cMCD up to 5.3 × 10^−5 mol L^−1; for decrease of the intensity of the SFS band of HSA, tryptophan: Δλ = 60 nm
T1 construct: purchased Sigma-Aldrich
T1 sequence (P02768 25-609): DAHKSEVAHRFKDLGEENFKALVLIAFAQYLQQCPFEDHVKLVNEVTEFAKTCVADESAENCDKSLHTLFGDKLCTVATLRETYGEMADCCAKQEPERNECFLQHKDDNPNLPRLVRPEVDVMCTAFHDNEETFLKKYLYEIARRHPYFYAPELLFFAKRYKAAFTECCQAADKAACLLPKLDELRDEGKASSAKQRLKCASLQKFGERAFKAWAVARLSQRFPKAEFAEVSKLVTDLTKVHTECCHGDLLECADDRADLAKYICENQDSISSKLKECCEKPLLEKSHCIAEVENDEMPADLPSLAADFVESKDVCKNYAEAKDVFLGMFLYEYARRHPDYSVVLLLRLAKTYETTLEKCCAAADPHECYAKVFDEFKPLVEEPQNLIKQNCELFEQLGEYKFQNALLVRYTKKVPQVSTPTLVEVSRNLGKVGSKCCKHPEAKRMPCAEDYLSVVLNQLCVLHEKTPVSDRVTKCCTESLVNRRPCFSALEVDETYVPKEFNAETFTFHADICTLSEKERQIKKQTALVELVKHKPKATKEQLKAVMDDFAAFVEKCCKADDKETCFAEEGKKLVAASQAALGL
Method: In order to determine the binding sites of HSA when interacting with MCD and to evaluate possible changes in these sites, the fluorescence spectra of tyrosine and tryptophan groups of HSA in the presence of MCD were measured in the synchronous fluorescence scanning (SFS) mode. The positions of the SF spectra of protein amino acid residues depend on their microsolvation (micropolarity of the medium). Thus, SFS allows for obtaining data on the effect of complexation on the microenvironment of fluorophore groups of protein molecules.
Quenching of intrinsic HSA fluorescence was analyzed using the Stern–Volmer and Lehrer–Leavis relationships (see Equations (3) and (4)). The experimental dependences approximated by linear anamorphoses (R^2~0.9–0.98) were better in the coordinates of the Lehrer–Leavis model than in the Stern–Volmer model (the Stern–Volmer plots were nonlinear). The Lehrer–Leavis model assumes partial accessibility of HSA chromophores for quenching by MCD (the resulting quenching constants are shown in Table 6).
Absorption spectra were recorded on an SF-2000 spectrophotometer (Experimental-Construction Company “Spectrum”, St. Petersburg, Russia); fluorescence and fluorescence excitation spectra were recorded on a Fluorat-02-Panorama spectrofluorimeter (Group of Companies “Lumex”, St. Petersburg, Russia). The fluorescence and fluorescence excitation spectra were corrected for the spectral characteristics of the instrument (excitation channel signal) and sample transmission. Changes in the intrinsic fluorescence of HSA upon binding of MCD (in the presence of the dyes) were recorded in the synchronous fluorescence scanning (SFS) mode. In SFS mode, when registering spectra, a fixed difference Δλ= λfl − λex is maintained for the channels of excitation and registration. Synchronous scanning spectra were obtained at Δλ = 15 nm (fluorescence of tyrosine residues in the HSA molecule) and Δλ = 60 nm (fluorescence of tryptophan). The spectra were measured in 1 cm quartz semi-micro cells (Bio-Rad, Hercules, CA, USA).
The Stern–Volmer (Equation (3)) and Lehrer–Leavis (Equation (4)) dependences were used to analyze the results of measurements of HSA intrinsic fluorescence (synchronous scanning mode) in the presence of MCD [56, 57]. (3) I0/I=1 + KSV[Q] (4) I0/(I0−I)=1 /α+ 1/(αKSV[Q]) where I0 and I are the fluorescence intensities in the absence and in the presence of a quencher, respectively; [Q] is the quencher concentration; KSV is the Stern–Volmer quenching constant; and α is the proportion of fluorophores in the biomolecule available to the quencher in the Lehrer–Leavis model. […]
1. Spectral‐Fluorescent Titration
In experiments on spectral‐fluorescence titration, MCD 1–4 were dosed from their concentrated st ock solutions in EtOH. Microvolumes (~0.5–5 μL) were dosed into the measuring cell (dilution 1:500 – 1:1000).
In experiments with biomacromolecules, microvolumes of concentrated stock solutions of dsDNA, ssDNA and HSA were injected directly into the cells. Spectral‐fluorescent characteristics of MCD in complexes with biomacromolecules were studied by titration of dye solutions (cdye ~ 1 – 2 × 10–6 mol L–1) with increasing concentrations of biopolymers. Measurements of the intrinsic fluorescence of HSA in the presence of MCD were carried out at a constant concentration of HSA (cHSA ~ 2.0 × 10–5 mol L–1) by titration with increasing concentrations of dyes. After stirring, the absorption and fluorescence spectra of the dyes were recorded several times. Upon registration, the fluorescence and fl uorescence excitation spectra were corrected for the spectral characteristic of the excitation channel and for the absorption of […]
2. Fluorescence Quantum Yields
Determination of the fluorescence quantum yields of MCD 1–4 was performed using the standard […]

[2] = tested on: dsDNA; experiment: Flash photolysis: triplet state of MCD in the presence of dsDNA; set-up: species or system chick; conditions: for k1, decay rate constant of the T state (first exponent) / k2, decay rate constant of the T state (second exponent): two-exponential decay
From the text: Upon direct flash photoexcitation of deoxygenated solutions of MCD 1–4, signals corresponding to triplet–triplet (T–T) absorption were not observed due to the low efficiency of intersystem crossing to the triplet (T) state, in comparison with competing processes of nonradiative deactivation of excited states of dye molecules, which is common for MCD [41]. Complexation with dsDNA hinders these competing processes, which leads to an increase in the quantum yield of the T state of MCD. In the presence of dsDNA, under direct photoexcitation, the signals of T states of MCD 1–3 were detected, and their different T–T absorption spectra were measured (Figure 10).
Quantum yields of intersystem crossing to the triplet state (ΦST) of MCD 1–3 in the presence of dsDNA were estimated by flash photolysis using optical actinometry (see Materials and Methods). The obtained values of ΦST for MCD 1–3 were 2.6 ± 0.4%, 5.7 ± 0.8%, and 10.7 ± 1.5%, respectively.
The spectral–kinetic characteristics of the T state of MCD were studied by flash photolysis. The experiment was carried out on a setup with excitation by a xenon lamp (lamp flash energy ~50 J, duration τ1/2 = 10 μs). When registering T states, the solutions were deoxygenated using a vacuum setup. The manometric unit was used to determine the air pressure in a series of experiments on T state quenching by dissolved oxygen. The T state of MCD 4 in PBS solution in the presence of dsDNA was obtained by energy transfer from the triplet level of sodium naphthalene-2-sulfonate (ET~21,000 cm^−1 [83]). The quantum yields of T states (ΦT) of the dyes in the presence of dsDNA were estimated actinometrically. Dyes with known ΦT were used as actinometers: the xanthene dye Acid Red 87 (ΦT = 0.8 (aq); [84]) and the cyanine dye 3,3′-diethyl-9-methoxythiacarbocyanine iodide (ΦT = 0.16–0.20 in n-propanol; [85]).

Row | SMILES | KSV, Stern–Volmer quenching constant (Lehrer–Leavis model) ([1]; Trp, SFS Δλ = 60 nm) [L/mol] | α, proportion of fluorophores available to the quencher (Lehrer–Leavis model) ([1]; Trp, SFS Δλ = 60 nm) | KSV, Stern–Volmer quenching constant (Lehrer–Leavis model) ([1]; Tyr, SFS Δλ = 15 nm) [L/mol] | α, proportion of fluorophores available to the quencher (Lehrer–Leavis model) ([1]; Tyr, SFS Δλ = 15 nm) | decrease of the intensity of the SFS band of HSA, tyrosine [1] [%] | decrease of the intensity of the SFS band of HSA, tryptophan [1] [%] | kqO2, rate constant of triplet state quenching by dissolved oxygen ([2]; main (short-lived) component) [M⁻¹ s⁻¹] | k1, decay rate constant of the T state (first exponent) [2] | k2, decay rate constant of the T state (second exponent) [2] | τT, lifetime of the T state [2]
1 | CCN1/C(=C/c2sc3ccccc3[n+]2CC)Sc2ccccc21 [MCD 3] | 6.12e+07 | 0.82 | 112000 | 0.15 | 11 | 6 | 3.6e+08 | ~ 1.3 × 10^4 s^−1 | ~ 4 × 10^3 s^−1 | 
2 | CCN1/C(=C/c2ccc3ccccc3[n+]2CC)C=Cc2ccccc21 [MCD 4] | 21000 | 0.60 | 38200 | 0.33 | 21 | 22 |  |  |  | ~ 0.03 ms
3 | CC[N+](CC)(CC)CCC[n+]1ccc(/C=C2\Sc3ccccc3N2C)c2ccc(O)cc21 [MCD 1] | 40400 | 0.40 | 21800 | 0.61 | 31 | 26 |  | ~ 9.9 × 10^3 s^−1 | ~2000 s⁻¹ | 
